In patent US12134620B2 (ARAXES PHARMA LLC, priority 2018, dated 2024):

Biological target: T1, KRAS G12C 1-169, his-tagged protein, GDP-loaded (Homo sapiens, UniProt P01116, G12C)
T1 construct: KRAS G12C 1-169, his-tagged protein, GDP-loaded; His tag
Assay: Biochemical assay: covalent modification of KRAS G12C, analysed by mass spectrometry (RapidFire/TOF or Q-Exactive); also: time not given here
Type: binding
Conditions: Modification activity, modification percentage from MS peak intensities
In short: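 Covalent adduct formation was quantified by intact-protein mass spectrometry, either TOF or C4 LC-Q Exactive Plus, as percent modified versus unmodified protein after deconvolution. Compounds at 8 or 32 μM final were incubated with 0.5 or 2 μM GDP-bound KRAS G12C(1-169)-His in Hepes/NaCl/MgCl2 buffer before acid quench.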

Row | SMILES | Binding %
1 | C=CC(=O)N1CC2(CCN(c3nc(OC[C@@H]4CCCN4C)cc(-c4c(C)ccc5[nH]ncc45)n3)C2)C1 [Compound I-148, (S)-1-(6-(4-(5-methyl-1H-indazol-4-yl)-6-((1-methylpyrrolidin-2-yl)methoxy)pyrimidin-2-yl)-2,6-diazaspiro[3.4]octan-2-yl)prop-2-en-1-one] | + (+ indicates binding activity greater than 0% and up to 50%)
2 | C=CC(=O)N1CC2(CCN(c3nc(OCc4cnc(OC)nc4)nc(-c4c(C)ccc5[nH]ncc45)c3C#N)C2)C1 [Compound I-149, 4-(2-acryloyl-2,6-diazaspiro[3.4]octan-6-yl)-2-((2-methoxypyrimidin-5-yl)methoxy)-6-(5-methyl-1H-indazol-4-yl)pyrimidine-5-carbonitrile] | +++ (+++ indicates binding activity greater than 85%)
3 | C=CC(=O)N1CC2(CCN(c3nc(OCc4cccnc4)nc(-c4c(C)ccc5[nH]ncc45)c3C#N)C2)C1 [Compound I-150, 4-(2-acryloyl-2,6-diazaspiro[3.4]octan-6-yl)-6-(5-methyl-1H-indazol-4-yl)-2-(pyridin-3-ylmethoxy)pyrimidine-5-carbonitrile] | ++ (++ indicates binding activity from 50 to 85%)
4 | C=CC(=O)N1CC2(CCN(c3nc(OCc4cccc(OC)c4)nc(-c4c(C)ccc5[nH]ncc45)c3C#N)C2)C1 [Compound I-151, 4-(2-acryloyl-2,6-diazaspiro[3.4]octan-6-yl)-2-((3-methoxybenzyl)oxy)-6-(5-methyl-1H-indazol-4-yl)pyrimidine-5-carbonitrile] | ++ (++ indicates binding activity from 50 to 85%)
5 | C=CC(=O)N1CC2(CCN(c3nc(OCc4cc(F)cc(F)c4)nc(-c4c(C)ccc5[nH]ncc45)c3C#N)C2)C1 [Compound I-152] | ++ (++ indicates binding activity from 50 to 85%)
6 | C=CC(=O)N1CC2(CCN(c3nc(OCc4ccc(N5CCOCC5)cn4)nc(-c4c(C)ccc5[nH]ncc45)c3C#N)C2)C1 [Compound I-153, 4-(2-acryloyl-2,6-diazaspiro[3.4]octan-6-yl)-6-(5-methyl-1H-indazol-4-yl)-2-((5-morpholinopyridin-2-yl)methoxy)pyrimidine-5-carbonitrile] | ++ (++ indicates binding activity from 50 to 85%)
7 | C=CC(=O)N1CC2(CCN(c3nc(OCc4ncccn4)nc(-c4c(C)ccc5[nH]ncc45)c3C#N)C2)C1 [Compound I-154, 4-(2-acryloyl-2,6-diazaspiro[3.4]octan-6-yl)-6-(5-methyl-1H-indazol-4-yl)-2-(pyrimidin-2-ylmethoxy)pyrimidine-5-carbonitrile] | ++ (++ indicates binding activity from 50 to 85%)
8 | C=CC(=O)N1CC2(CCN(c3nc(OCc4ccc(C(F)(F)F)cn4)nc(-c4c(C)ccc5cnn(C)c45)c3C#N)C2)C1 [Compound I-155, 4-(2-acryloyl-2,6-diazaspiro[3.4]octan-6-yl)-6-(1,6-dimethyl-1H-indazol-7-yl)-2-((5-(trifluoromethyl)pyri-din-2-yl)methoxy)pyrimidine-5-carbonitrile] | ++ (++ indicates binding activity from 50 to 85%)
9 | C=CC(=O)N1CC2(CCN(c3nc(OCc4cccc(C(F)(F)F)n4)nc(-c4c(C)ccc5cnn(C)c45)c3C#N)C2)C1 [Compound I-156, 4-(2-acryloyl-2,6-diazaspiro[3.4]octan-6-yl)-6-(1,6-dimethyl-1H-indazol-7-yl)-2-((6-(trifluoromethyl)pyri-din-2-yl)methoxy)pyrimidine-5-carbonitrile] | ++ (++ indicates binding activity from 50 to 85%)
10 | C=CC(=O)N1CC2(CCN(c3nc(OCc4ccc(C(F)(F)F)cc4)nc(-c4c(C)ccc5cnn(C)c45)c3C#N)C2)C1 [Compound I-157, 4-(2-acryloyl-2,6-diazaspiro[3.4]octan-6-yl)-6-(1,6-dimethyl-1H-indazol-7-yl)-2-((4-(trifluoromethyl)ben-zyl)oxy)pyrimidine-5-carbonitrile] | ++ (++ indicates binding activity from 50 to 85%)
11 | C=CC(=O)N1CC2(CCN(c3nc(OCc4cccc(C(F)(F)F)c4)nc(-c4c(C)ccc5cnn(C)c45)c3C#N)C2)C1 [Compound I-158, 4-(2-acryloyl-2,6-diazaspiro[3.4]octan-6-yl)-6-(1,6-dimethyl-1H-indazol-7-yl)-2-((3-(trifluoromethyl)ben-zyl)oxy)pyrimidine-5-carbonitrile] | ++ (++ indicates binding activity from 50 to 85%)
12 | C=CC(=O)N1CC2(CCN(c3nc(OCc4cccc(OC)c4)nc(-c4c(C)ccc5cnn(C)c45)c3C#N)C2)C1 [Compound I-159, 4-(2-acryloyl-2,6-diazaspiro[3.4]octan-6-yl)-6-(1,6-dimethyl-1H-indazol-7-yl)-2-((3-methoxybenzyl)oxy) pyrimidine-5-carbonitrile] | ++ (++ indicates binding activity from 50 to 85%)
13 | C=CC(=O)N1CC2(CCN(c3nc(N4CCC(N5CCN(C)CC5)CC4)nc(-c4c(C)ccc5cnn(C)c45)c3C#N)C2)C1 [Compound I-160, 4-(2-acryloyl-2,6-diazaspiro[3.4]octan-6-yl)-6-(1,6-dimethyl-1H-indazol-7-yl)-2-(4-(4-methylpiperazin-1-yl)piperidin-1-yl)pyrimidine-5-carbonitrile] | ++ (++ indicates binding activity from 50 to 85%)
14 | C=CC(=O)N1CC2(CCN(c3nc(OCc4cnc(OC)nc4)nc(-c4c(C)ccc5cnn(C)c45)c3C#N)C2)C1 [Compound I-161, 4-(2-acryloyl-2,6-diazaspiro[3.4]octan-6-yl)-6-(1,6-dimethyl-1H-indazol-7-yl)-2-((2-methoxypyrimidin-5-yl)methoxy)pyrimidine-5-carbonitrile] | ++ (++ indicates binding activity from 50 to 85%)
15 | C=CC(=O)N1CC2(CCN(c3nc(OCc4ccc(N5CCOCC5)cn4)nc(-c4c(C)ccc5cnn(C)c45)c3C#N)C2)C1 [Compound I-162, 4-(2-acryloyl-2,6-diazaspiro[3.4]octan-6-yl)-6-(1,6-dimethyl-1H-indazol-7-yl)-2-((5-morpholinopyridin-2-yl)methoxy)pyrimidine-5-carbonitrile] | ++ (++ indicates binding activity from 50 to 85%)
16 | C=CC(=O)N1CC2(CCN(c3nc(OCc4ccccc4)nc(-c4c(C)ccc5cnn(C)c45)c3C#N)C2)C1 [Compound I-163, 4-(2-acryloyl-2,6-diazaspiro[3.4]octan-6-yl)-2-(benzyloxy)-6-(1,6-dimethyl-1H-indazol-7-yl)pyrimidine-5-carbonitrile] | ++ (++ indicates binding activity from 50 to 85%)
17 | C=CC(=O)N1CC2(CCN(c3nc(OCc4ccnnc4)nc(-c4c(C)ccc5cnn(C)c45)c3C#N)C2)C1 [Compound I-164, 4-(2-acryloyl-2,6-diazaspiro[3.4]octan-6-yl)-6-(1,6-dimethyl-1H-indazol-7-yl)-2-(pyridazin-4-ylmethoxy)pyrimidine-5-carbonitrile] | ++ (++ indicates binding activity from 50 to 85%)
18 | C=CC(=O)N1CC2(CCN(c3nc(OCc4cc(F)cc(F)c4)nc(-c4c(C)ccc5cnn(C)c45)c3C#N)C2)C1 [Compound I-165] | ++ (++ indicates binding activity from 50 to 85%)
19 | C=CC(=O)N1CC2(CCN(c3nc(OCc4cc(C(F)(F)F)ccn4)nc(-c4c(C)ccc5cnn(C)c45)c3C#N)C2)C1 [Compound I-166, 4-(2-acryloyl-2,6-diazaspiro[3.4]octan-6-yl)-6-(1,6-dimethyl-1H-indazol-7-yl)-2-((4-(trifluoromethyl)pyri-din-2-yl)methoxy)pyrimidine-5-carbonitrile] | ++ (++ indicates binding activity from 50 to 85%)
20 | C=CC(=O)N1CC2(CCN(c3nc(OC[C@@H]4CCCN4C)nc(-c4ccnc(N)n4)c3C#N)C2)C1 [Compound I-167, (S)-6-(2-acryloyl-2,6-diazaspiro[3.4]octan-6-yl)-2′-amino-2-((1-methylpyrrolidin-2-yl)methoxy)-[4,4′-bipyrimidine]-5-carbonitrile] | + (+ indicates binding activity greater than 0% and up to 50%)
21 | C=CC(=O)N1CC2(CCN(c3nc(OCc4ncccn4)nc(-c4c(C)ccc5cnn(C)c45)c3C#N)C2)C1 [Compound I-168, 4-(2-acryloyl-2,6-diazaspiro[3.4]octan-6-yl)-6-(1,6-dimethyl-1H-indazol-7-yl)-2-(pyrimidin-2-ylmethoxy)pyrimidine-5-carbonitrile] | + (+ indicates binding activity greater than 0% and up to 50%)
22 | C=CC(=O)N1CC2(CCN(c3nc(OCc4cnc(C)nc4)nc(-c4c(C)ccc5cnn(C)c45)c3C#N)C2)C1 [Compound I-169, 4-(2-acryloyl-2,6-diazaspiro[3.4]octan-6-yl)-6-(1,6-dimethyl-1H-indazol-7-yl)-2-((2-methylpyrimidin-5-yl)methoxy)pyrimidine-5-carbonitirle] | ++ (++ indicates binding activity from 50 to 85%)
23 | C=CC(=O)N1CC2(CCN(c3nc(OCc4cccc(C)n4)nc(-c4c(C)ccc5cnn(C)c45)c3C#N)C2)C1 [Compound I-170, 4-(2-acryloyl-2,6-diazaspiro[3.4]octan-6-yl)-6-(1,6-dimethyl-1H-indazol-7-yl)-2-((6-methylpyridin-2-yl)methoxy)pyrimidine-5-carbonitrile] | ++ (++ indicates binding activity from 50 to 85%)
24 | C=CC(=O)N1CC2(CCN(c3nc(OCc4cnc(C)nc4)nc(-c4c(C)ccc5[nH]ncc45)c3C#N)C2)C1 [Compound I-171, 4-(2-acryloyl-2,6-diazaspiro[3.4]octan-6-yl)-6-(5-methyl-1H-indazol-4-yl)-2-((2-methylpyrimidin-5-yl)methoxy)pyrimidine-5-carbonitrile] | +++ (+++ indicates binding activity greater than 85%)
25 | C=CC(=O)N1CC2(CCN(c3nc(OCc4cccc(C)n4)nc(-c4c(C)ccc5[nH]ncc45)c3C#N)C2)C1 [Compound I-172, 4-(2-acryloyl-2,6-diazaspiro[3.4]octan-6-yl)-6-(5-methyl-1H-indazol-4-yl)-2-((6-methylpyridin-2-yl)methoxy)pyrimidine-5-carbonitrile] | +++ (+++ indicates binding activity greater than 85%)
